Source: paper PMC11237694, “Novel pentafluorosulfanyl-containing triclocarban analogs selectively kill Gram-positive bacteria” (Microbiology Spectrum, 2024)
In brackets after ≈: the same amount, converted by molar mass. Entries after “also recorded” stand apart in the source; their conditions may differ.

Key:
MT4 cells = test: Eukaryotic cell toxicity; assay type: cell-based, Human; details: 4 days
Procedure: Five eukaryotic cell lines were used to determine the cytotoxicity of the compounds: human embryonic lung (HEL) fibroblast cells, human cervixcarinoma-derived HeLa cells, human T-cell leukemia-derived MT4 cells, MDCK cells, and African Green monkey kidney-derived VERO cells. Semi-confluent cell cultures in 96-well plates were exposed to serial dilutions of the compounds or to medium (= no compound control), then incubated at 37°C. Four days later, the cells were inspected by microscopy to determine the MCC, that is, compound concentration that causes a microscopically detectable alteration of normal cell morphology. Next, the MTS cell viability reagent (CellTiter 96 AQueous MTS Reagent from Promega) was added. After 4 hours of incubation at 37°C, OD at 490 nm was recorded in a microplate reader.

MRSA ATCC 33591 = test: Planktonic susceptibility (MIC/MBC), 96-well broth microdilution; assay type: cell-based, methicillin-resistant S. aureus; details: for antibacterial efficacy (in words): MRSA spp.; for MBC / MIC: Staphylococcus aureus, MRSA reference strain; for MIC: planktonic, overnight 37°C in MHB
Procedure: (§1) All bacterial strains subjected to testing had been stored at −70°C prior to the experiment. The experiment commenced by streaking small amounts of the frozen bacterial samples onto Muller-Hinton agar (MHA) culture medium (BD Bacto, Oxoid, Basingstoke, UK Cat# X296B) and allowing for overnight incubation. Bacteria were re-cultured on MHA plates as required to confirm colony morphology and lack of contamination. Strains tested were P. aeruginosa ATCC 27853, E. coli ATCC 25922, Staphylococcus aureus ATCC 25923, MRSA ATCC 33591, S. epidermidis ATCC 12228, Klebsiella pneumoniae ATCC, P. mirabilis ATCC 35659, and 10 clinical isolates of MRSA from Foothills Hospital, Calgary, Canada. To prepare for susceptibility testing, a protocol modified from Lemire et al was used ([28]). MHB was swab-inoculated from MHA colonies and shake-incubated until turbid. Dilution of the broth with 0.9% saline was performed as necessary to match a 1.0 McFarland standard.
MIC and MBC assessments were conducted on all bacterial strains using 96-well microtiter plates. To prepare the wells for bacteria, serial dilutions of the antibacterial agents were carried out along the rows of two microtiter plates. The antibacterials were 2-fold diluted with Mueller-Hinton broth (MHB) in each column, reaching a volume of 75 µL. The 1.0 McFarland standard was diluted 15-fold in MHB, and 75 µL of inoculum was added to the wells treated with antibacterials, resulting in a total volume of 150 µL. The microtiter plates were covered and then shake-incubated overnight at 150 rpm and 37°C. MIC was determined based on visible bacterial growth. […] MBC was determined by transferring 3 µL of culture from all MIC microtiter plate wells to 147 µL of Mueller-Hinton broth in fresh plates. These plates were shake-incubated overnight at 150 rpm and 37°C, and bacterial growth was visually inspected.

P. mirabilis ATCC 35659 = test: as above; assay type: cell-based; details: Proteus mirabilis; for MBC: ATCC35659; for MIC: ATCC35659, planktonic, overnight 37°C in MHB
Procedure: as §1
(§2) MIC and MBC assessments were conducted on all bacterial strains using 96-well microtiter plates. To prepare the wells for bacteria, serial dilutions of the antibacterial agents were carried out along the rows of two microtiter plates. The antibacterials were 2-fold diluted with Mueller-Hinton broth (MHB) in each column, reaching a volume of 75 µL. The 1.0 McFarland standard was diluted 15-fold in MHB, and 75 µL of inoculum was added to the wells treated with antibacterials, resulting in a total volume of 150 µL. The microtiter plates were covered and then shake-incubated overnight at 150 rpm and 37°C. MIC was determined based on visible bacterial growth. In cases of antibacterial opacity or ambiguous results, streaking of well cultures on MHA, overnight incubation, and subsequent comparison with controls were performed. MBC was determined by transferring 3 µL of culture from all MIC microtiter plate wells to 147 µL of Mueller-Hinton broth in fresh plates. These plates were shake-incubated overnight at 150 rpm and 37°C, and bacterial growth was visually inspected.

[1] = tested on: Klebsiella pneumoniae ATCC; test: as above; assay type: cell-based; details: K. pneumonia; for MIC: planktonic, overnight 37°C in MHB
Procedure: as §1, §2

[2] = tested on: Staphylococcus aureus ATCC 25923; test: as above; assay type: cell-based; details: S. aureus; for MBC / MIC: Staphylococcus aureus, ATCC25923; for MIC: planktonic, overnight 37°C in MHB
Procedure: as §1, §2

MRSA strain MW2 = test: Intravenous MRSA infection model in mice, CFU enumeration in organs; assay type: in vivo; details: single i.p. injection 100 µl of 5 mM, 1 hour before or after i.v. infection with 5 × 10^7 CFU MW2; 24 hours
Procedure: Mice were infected systemically with the community-associated MRSA strain MW2 at an infectious dose of 5 × 10^7 colony-forming units (CFUs) as described ([26]). Treatment groups were injected intraperitoneally with the compound of interest 1 hour before or after infection, with a saline-injected control group. After 24 hours of infection, mice were sacrificed, and blood, peritoneal fluid, spleen, liver, kidney (left), heart, and lungs were harvested for CFU enumeration to determine the bacterial burden in these organs. […] Although disappointing, the lack of promising results in the single-dose treatments may have a variety of reasons, including rapid metabolism and excretion of the compounds by the liver, or the acknowledged intracellular aspect of S. aureus in its infectious cycle ([27]). […] Additionally, investigating the possibility of topical application for these components presents another viable option.
Animal experiments were performed with 6- to 10-week/old adult male mice. Mice were kept in a pathogen-free facility under standardized conditions: temperature of 21–22°C, illumination of 12-hour light–12-hour dark, and access to tap water and food. Experimental animal protocols were approved by the University of Calgary Animal Care Committee and followed the Canadian Council for Animal Care Guidelines.
MW2 Staphylococcus aureus was grown on brain heart infusion (BHI) agar plates (BD biosciences). A single colony was grown overnight in BHI medium (BD biosciences) at 37°C while shaking. Subcultures of […] of the overnight (ON) culture were grown in 3 mL of the same culture medium for 2 hours at 37°C while shaking to reach the exponential growth phase. Bacteria were brought to a concentration of OD660 1.0 in saline. […]
For assessing bacterial by CFU enumeration, the mice were anesthetized with isoflurane (Fresenius Kabi) and washed with 70% ethanol to collect blood and sacrificed to further collect liver, spleen, kidney (left), heart, and lungs. […] Cultures were counted, and CFUs were calculated taking the weight of the organ into account.

| SMILES | MT4 (MCC) in vitro cytotoxicity (MT4 cells) [µM] | antibacterial efficacy (in words) (MRSA ATCC 33591) | MBC (MRSA ATCC 33591) [µM] | MIC (MRSA ATCC 33591) [µM] | MBC (P. mirabilis ATCC 35659) [µM] | MIC (P. mirabilis ATCC 35659) [µM] | MBC [1] [µM] | MIC [1] [µM] | antibacterial efficacy (in words) [2] | MBC [2] [µM] | MIC [2] [µM] | bacterial burden (CFU) in blood, spleen, liver, kidney, heart, lungs (MRSA strain MW2) |
| --- | --- | --- | --- | --- | --- | --- | --- | --- | --- | --- | --- | --- |
| O=C(Nc1ccc(Cl)cc1)Nc1cccc(S(F)(F)(F)(F)F)c1 [EBP-62, 1-(4-chlorophenyl)-3-(3-(pentafluoro-λ^6-sulfanyl)phenyl)urea] | 4.7 | effective | 76 (≈ 28.3 µg/mL) | 38 (≈ 14.2 µg/mL) | > 5000 | > 5000 | > 5000 | > 5000 | effective | 300 (≈ 112 µg/mL) | 0.3 (≈ 0.112 µg/mL) | failed to reduce bacterial counts; also recorded: not significant |
| O=C(Nc1ccc(Cl)cc1)Nc1ccc(S(F)(F)(F)(F)F)cc1 [EPB-61, 1-(4-Chlorophenyl)-3-(4-(pentafluoro-λ^6-sulfanyl)phenyl)urea] | 2.8 | effective | 300 (≈ 112 µg/mL) | 160 (≈ 59.6 µg/mL) | > 5000 | > 5000 | > 5000 | > 5000 | effective | 95 (≈ 35.4 µg/mL) | 9.5 (≈ 3.54 µg/mL) | failed to reduce bacterial counts; also recorded: not significant |
| O=C(Nc1ccc(S(F)(F)(F)(F)F)cc1)Nc1ccc(Cl)c(Cl)c1 [EBP-59] | 3.9 | effective | 20 (≈ 8.14 µg/mL) | 2.4 (≈ 0.977 µg/mL) | 2 (≈ 0.814 µg/mL) | 2 (≈ 0.814 µg/mL) | > 5000 | > 5000 | effective | 6.1 (≈ 2.48 µg/mL) | < 0.3 | failed to reduce bacterial counts; also recorded: not significant |
